Results from patent publication US20240043473A1, “NOOTROPIC PEPTIDES FOR TREATING LYSOSOMAL STORAGE DISEASES” (Phoenix Nest Inc., priority 2021, published 2024).
“Also recorded” adds a separate entry of the source. No end group written: not given here.

Tests used:
Hgsnat^P304L mice = assay: Wet spleen weight at sacrifice (splenomegaly); assay type: in vivo, mouse; details: chronic daily 50 μg/kg BW; Hgsnat^P304L mice at sacrifice (9.5-11 months); vs saline
[1] = system: Hgsnat-Geo and Hgsnat^P304L MPS IIIC mice; assay: Novel Object Recognition test; assay type: in vivo, mouse
Protocol: Method: Novel object recognition test that studies working memory of mice by measuring their ability to discriminate a familiar from a novel object. AVP6 was administered intranasally at a daily dose 50 μg/kg (5 μl/nostril) for 10 consecutive days before the experimental day.
Novel object recognition test was used for assessing short-term recognition memory. Mice were placed individually in a 44×33×20 cm (length×width×height) testing chamber with white Plexiglas walls for 10 min habituation period and returned to their home cage. The next day, mice were placed in the testing chamber for 10 min with two identical objects (red plastic towers, 3×1.5×4.5 cm), returned to the home cages, and 1 hour later, placed back into the testing chamber in the presence of one of the original objects and one novel object (a blue plastic base, 4.5×4.5×2 cm) for 10 min. After each mouse, the test arena as well as the plastic objects were cleaned with 70% ethanol to avoid olfactory cue bias. The discrimination index (DI) was calculated as the difference of the exploration time between the novel and old object divided by total exploration time.
Starting from 3 weeks of age, WT C57B16 and homozygous Hgsnat^P304L male and female mice were randomly divided in treatment and control groups (6-13 mice/sex/genotype/treatment; see Table I). The control group was daily administered with saline (5 μL to each nostril), while for the treatment group, saline was supplemented with 125 µg of AVP6/mL, which would result in a dose of approximately 50 μg/kg BW/day. The peptide formulation was prepared once, aliquoted and kept frozen at −80° C. until use. At 4 months, all mice were studied by EPM, OF, YM and NOR behavioral tests. Administration of the drug or saline was continued through the days on which the assays were conducted. Then approximately at 5 months 4-5 mice in each group were sacrificed. Their blood plasma was collected, and their tissues were either snap-frozen or fixed and cryopreserved to analyze CNS pathology as described above. For the remaining mice, treatment was continued and their behaviour was studied again at the age of 6 months using OF. NOR and YM tests. Starting from the age of 8 months, Hgsnat^P304L treated and untreated mice were daily studied for the signs of urinary retention. When such signs were detected, the mice were studied by ERG and sacrificed within 1-2 days. […]
The ability of the peptide to improve the memory deficits was tested in the 4-months-old Hgsnat-Geo mice using the Novel Object Recognition (NOR) test that studies working memory of mice by measuring their ability to discriminate a familiar object a novel one. […] Immediately after the test, mice were sacrificed and the levels of mature BDNF protein were measured in their hippocampi by immunoblot.

Substance: AVP6: N-terminally acetylated Semax, a nootropic peptide having the amino acid sequence of MEHFPGP (SEQ ID NO:1) (Ac-MEHFPGP)
- spleen weight / splenomegaly (Hgsnat^P304L mice): significantly lower spleen weight
- short-term memory deficit, Novel Object Recognition ([1]; chronic 50 μg/kg BW/day, Hgsnat^P304L mice at 6 months): partially rescues deficits in spatial and short-term memory
- short-term memory deficit (discrimination and recognition indexes), Novel Object Recognition ([1]; chronic daily intranasal 50 μg/kg BW from 3 weeks, Hgsnat^P304L mice at 4 months): rescues deficits in spatial and short-term memory; also recorded: show the rescue of all above deficits
- working (short-term) memory deficit: discrimination index and recognition index, Novel Object Recognition ([1]; intranasal 50 μg/kg daily for 10 consecutive days, 4-month-old Hgsnat-Geo mice): significantly recovered memory deficits; also recorded: rescues working memory deficits; also recorded: This deficit is rescued
- discrimination index and recognition index in WT mice, Novel Object Recognition ([1]; intranasal 50 μg/kg daily for 10 days, WT mice vs saline): trend for an increase
